According to patent US7723088B2, “DNA sequences involved in prenylflavonoid biosynthesis in hops and their use in modifying prenylflavonoid production in plants” (priority 2005, dated 2010):
“Also recorded” adds a separate entry of the source.

Assays:
[1] = target: T1, HIOMT2 (OMT2) O-methyltransferase (Humulus lupulus, UniProt B0ZB56); experiment: 14C-SAM methylation enzyme assay with recombinant HIOMT2 (OMT2) insect cell lysate; format: biochemical; settings: recombinant enzyme from Sf9 insect cell lysate, 14C-SAM methyl donor, ethyl acetate extract, scintillation counting
T1 construct: The open reading frame of each enzyme was cloned into the baculovirus expression vector pFastBacHT (Invitrogen); 6xHis with TEV site, from the pFastBacHT vector (own knowledge); made in house; host or cells: Spodoptera frugiperda (Sf9) insect cells, baculovirus; crude cell lysate
T1 sequence (B0ZB56 1-360): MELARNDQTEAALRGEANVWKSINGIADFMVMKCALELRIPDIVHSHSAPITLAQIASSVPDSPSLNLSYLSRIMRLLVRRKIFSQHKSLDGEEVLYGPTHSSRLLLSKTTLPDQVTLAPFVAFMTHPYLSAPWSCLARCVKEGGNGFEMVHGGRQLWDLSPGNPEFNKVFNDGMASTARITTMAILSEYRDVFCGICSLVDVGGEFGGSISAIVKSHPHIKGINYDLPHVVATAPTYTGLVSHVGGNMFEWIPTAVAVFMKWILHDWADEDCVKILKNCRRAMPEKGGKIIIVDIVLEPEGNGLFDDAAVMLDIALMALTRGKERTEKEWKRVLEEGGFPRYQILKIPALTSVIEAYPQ
Excerpt: (§1) The open reading frame of each enzyme was cloned into the baculovirus expression vector pFastBacHT (Invitrogen) and the resulting bacmid generated using the Bac-to-Bac system (Invitrogen). The bacmid was used to transfect Spodoptera frugiperda (Sf9) insect cells. After amplification of the baculovirus through several passages, insect cell monolayers were infected, cultivated for 2-4 days and then centrifuged to separate cells from culture media. Cell pellets were lysed and aliquots used directly in enzyme assay containing ^14C—S-adenosyl methionine (^14C-SAM) as a methyl donor and various phenolic and phenylpropanoid natural products as substrates. Methylation activity was measured by the extraction of the enzyme reaction with ethyl acetate and its analysis by scintillation counting. In this assay, ^14C-methylation of one of the proffered substrates is indicated by the presence of radioactivity in the ethyl acetate extract.

[2] = target: T2, HIOMT1 (OMT1) O-methyltransferase (Humulus lupulus, UniProt B0ZB55, L311X); experiment: 14C-SAM methylation enzyme assay with recombinant HIOMT1 (OMT1) insect cell lysate; format: biochemical; settings: for methylation of substrate by OMT1: recombinant enzyme from Sf9 insect cell lysate, 14C-SAM methyl donor, ethyl acetate extract, scintillation counting
T2 construct: The open reading frame of each enzyme was cloned into the baculovirus expression vector pFastBacHT (Invitrogen); 6xHis with TEV site, from the pFastBacHT vector (own knowledge); made in house; host or cells: Spodoptera frugiperda (Sf9) insect cells, baculovirus; crude cell lysate
Description: FIG. 3. Enzymatic activity of HIOMT1 showing that this enzyme methylates desmethylxanthohumol to produce xanthohumol. […] Recombinant HIOMT1 was expressed in insect cells and crude cell lysate used for enzymatic assay. (A) Radio-HPLC analysis of reaction products from empty vector control lysate incubated with ^14C-SAM and desmethylxanthohumol. (B) Radio-HPLC analysis of reaction products from HIOMT1 lysate incubated with ^14C-SAM. (C) Radio-HPLC analysis of reaction products HIOMT1 lysate incubated with ^14C-SAM and desmethylxanthohumol showing that xanthohumol is formed (D) Reversed-phase HPLC analysis of authentic xanthohumol.
as §1

Structure (SMILES) | methylation of substrate by OMT2 [1] | methylation by HIOMT1, reaction product by radio-HPLC (FIG. 3) ([2]; crude insect cell lysate, 14C-SAM, radio-HPLC analysis, product xanthohumol) | methylation of substrate by OMT1 [2]
O=C(/C=C/c1ccc(O)cc1)c1ccccc1O [2′,4-dihydroxychalcone] | methylate |  | 
O=C(/C=C/c1ccc(O)c(O)c1)c1ccc(O)cc1O [butein] | methylate |  | 
Oc1ccccc1O [catechol] | methylate |  | 
O=C(/C=C/c1ccc(O)cc1)c1c(O)cc(O)cc1O [chalconaringenin] | methylate |  | 
CC(C)=CCc1c(O)cc(O)c(C(=O)/C=C/c2ccc(O)cc2)c1O [desmethylxanthohumol] | capable of using desmethylxanthohumol as a substrate; also recorded: methylate | methylates desmethylxanthohumol to form xanthohumol | capable of using desmethylxanthohumol as a substrate; also recorded: methylate
C=CCc1ccc(O)c(OC)c1 [eugenol] | methylate |  | 
O=c1c(-c2ccc(O)cc2)coc2cc(O)cc(O)c12 [genistein] | methylate |  | 
COc1ccccc1O [guaiacol] | methylate |  | 
O=C(/C=C/c1ccc(O)cc1)c1ccc(O)cc1O [isoliquiritigenin] | methylate |  | 
Cc1cc(O)cc(O)c1 [orcinol] | methylate |  | 
Oc1cccc(O)c1 [resorcinol] | methylate |  | 
Oc1ccc(C=Cc2cc(O)cc(O)c2)cc1 [resveratrol] | methylate |  | 
COc1cc(O)c(C(=O)/C=C/c2ccc(O)cc2)c(O)c1CC=C(C)C [xanthogalenol] |  |  | methylate
COc1cc(O)c(CC=C(C)C)c(O)c1C(=O)C=Cc1ccc(O)cc1 [xanthohumol, 1-[2,4-dihydroxy-6-methoxy-3-(3-methylbut-2-enyl)phenyl]-3-(4-hydroxyphenyl)-prop-2-en-1-one] | methylate |  | 
